Reference: patent US20230390296A1, “NOVEL TREATMENT AND PREVENTION OF SARCOPENIA-RELATED DISEASES” (KEIO UNIVERSITY, priority 2020, published 2023)
Values joined by “and” are separate entries in the source; they are usually repeats but may differ in a detail not shown here. Equal entries are not always repeated.

Key:
[1] = test system: sarcopenia mouse models; experiment: Cardiac function test (echocardiogram and treadmill); format: in vivo; conditions: administered versus non-administered sarcopenia mouse models
Experimental: This Example used mouse models prepared in the Preparation Example.
Measurement can be taken using Kumamoto Mouse Clinic (KMC) of Kumamoto University.
Mouse models were divided into two groups. Cardiac function was tested for sarcopenia mouse models administered with OK-1 and sarcopenia mouse models without administration of OK-1. Cardiac function was tested and analyzed using an echocardiogram and treadmill.
Mouse models were divided into two groups. Cardiac function was tested for sarcopenia mouse models administered with C-82 and sarcopenia mouse models without administration of C-82. Cardiac function was tested and analyzed using an echocardiogram and treadmill.

[2] = test system: muscle of mice without exercise; experiment: Gene analysis (RNA-seq, GO, upstream transcription factor, GSEA) of muscle of administered mice without exercise; format: in vivo, mouse
Experimental: Gene analysis (RNA-seq) was performed in old mice administered with OK-1 with improved muscle strength and muscle mass. The method and reagent used were the following.
The quality of all reads was checked by using FastQC v0.11.8, and low quality reads were removed using Trimomatic (ver 0.38).
LEADING: 20 (remove bases with a quality score of less than 20 from the leading reads), TRAILING: 20, SLIDINGWINDOW: 4:15 (window size 4, average quality 15), MINLEN: 36 (remove reads that are less than […])
Each read obtained after filtering was mapped to reference genome GRCm38 by using STAR (ver 2.7.0.f). Mapping was performed using the default values of STAR.
1) Index preparation • Run Mode; genomeGenerate • Reference; GRCm38 • Annotation file; genecode version M24 • sjdbOverhang; 150 alignment was performed using the index prepared above. In addition, this was performed with default values without options.
To count the number of genes, featuecount (ver 1.6.4) was used to count the number for each gene name defined by a symbol name, where the number was counted in gene symbol units defined in genecode version M24.
The counted numbers were filtered for genes with a count data of 0 in all samples, subjected to TMM normalization using edgeR (ver 3.22.3), and corrected among samples. Initially, for understanding of the overall picture of the data, primary component analysis and clustering analysis were performed using count data after removal of low expression genes.
Differential expression of a pattern designated based on the obtained expression values was compared.
Differentially expressed genes were tested using edgeR. As the definition of differentially expressed gene, uncorrected p. value<0.05 was used as a cut-off value, and Fold Change of “pattern not used” and “2 or more or 0.5 or less” were used as the cut-off for calculation.
Gene enrichment analysis was performed on the resulting differentially expressed gene using gprofiler2 (version 0.1.6).
Expression values after normalization of resulting differentially expressed genes were extracted. Visual heatmap was drawn to study the change. […] This analysis was performed using RcisTarget (ver 1.8.0). RcisTarget performed analysis using a mouse database for 10 kbp upstream of TSS stored in RcisTarget. Details of analysis are the following (cited from https://scenic.aertslab.org/tutorials/RcisTarget.html).
The first step to estimate the over-representation of each motif on the gene-set is to calculate the Area Under the Curve (AUC) for each pair of motif-geneSet. This is calculated based on the recovery curve of the gene-set on the motif ranking (genes ranked decreasingly by the score of motif in its proximity, as provided in the motifRanking database).
The selection of significant motifs is done based on the Normalized Enrichment Score (NES). The NES is calculated—for each motif—based on the AUC distribution of all the motifs for the gene-set [(x-mean)/sd]. Those motifs that pass the given threshold (3.0 by default) are considered significant. […] In this way, the third step of the workflow is to identify which genes (of the gene-set) are highly ranked for each of the significant motifs. These genes were identified by a faster implementation based on an approximate distribution using the average at each rank.
The category of genes with a change in expression identified in Example 2 was analyzed with a software (GSEA), which is different from that in Example 2 (GO) (FIG. 3). Analysis with GSEA was performed as follows. GSEA performed categorization by the regulating gene. This is different from GO, which performs categorization by function.
Data was created on the relationship of activattion+unknown and repression+unknown for regulatory genes and transcription factors installed in TRRUST ver2. Gene enrichment analysis was performed using GSEA (https://www.gsea-msigdb.org/gsea/index.jsp) based on respective gene sets. local gsea-3.0 that starts up within java was used for GSEA.

[3] = test system: sarcopenia mouse models; experiment: Biochemical test on organ (creatine, IL-6, cholesterol etc. concentrations); format: in vivo; conditions: administered versus non-administered sarcopenia mouse models
Experimental: Mouse models were divided into two groups. The creatine concentration, IL-6 concentration, and cholesterol concentration were measured for sarcopenia mouse models administered with OK-1 and sarcopenia mouse models without administration of OK-1.
Mouse models were divided into two groups. The creatine concentration, IL-6 concentration, cholesterol concentration, UN (urea nitrogen is a biomarker that can predict the dysfunction of kidney or urinary system) concentration, and UA (uric acid is a biomarker for kidney or liver function) concentration were measured for sarcopenia mouse models administered with C-82 and sarcopenia mouse models without administration of C-82.

[4] = test system: muscle of mice with/without exercise; experiment: Collation of top 100 differentially expressed muscle genes with NIH MedlinePlus (related diseases); parameters: species or system mouse
Excerpt: Diseases associated with top 100 genes observed to have differential expression in mice with/without exercise were found by collation with NIH MedlinePlus (FIG. 8).

[5] = test system: sarcopenia mouse models; experiment: NTX (cross linked N-telopeptide of type I collagen) concentration; format: in vivo; conditions: administered versus non-administered sarcopenia mouse models
Experimental: Mouse models were divided into two groups. The NTX (cross linked N-telopeptide of type I collagen) concentration was measured for sarcopenia mouse models administered with OK-1 and sarcopenia mouse models without administration of OK-1.
Mouse models were divided into two groups. The NTX (cross linked N-telopeptide of type I collagen) concentration was measured for sarcopenia mouse models administered with C-82 and sarcopenia mouse models without administration of C-82.

[6] = test system: sarcopenia mouse models; experiment: Metabolic disease markers (LDH, ALT, TG, HDL-C, insulin, glucose, amylase, AST concentrations); format: in vivo; conditions: administered versus non-administered sarcopenia mouse models
Experimental: (§1) Mouse models were divided into two groups. LDH concentration, ALT concentration, TG concentration, HDL-C concentration, insulin concentration, glucose concentration, amylase concentration, AST concentration, and ALT concentration were measured for sarcopenia mouse models administered with OK-1 and sarcopenia mouse models without administration of OK-1.
as §1, with “C-82” for “OK-1”, “C-82.” for “OK-1.”

[7] = test system: P301S mouse models; experiment: Tau phosphorylation, memory and brain atrophy in tauopathy model; format: in vivo; conditions: P301S (FTDP-17) mouse model
[8] = test system: mouse bones; experiment: Bone density (DEXA or ultrasound); format: in vivo; conditions: administered versus non-administered mice
Experimental: This Example tested bone density for mice administered with OK-1 and mice without administration of OK-1 in order to investigate the effect of OK-1 on mouse bones. Bone density was measured using DEXA or ultrasound.
This Example tested bone density for mice administered with C-82 and mice without administration of C-82 in order to investigate the effect of C-82 on mouse bones. Bone density was measured using DEXA or ultrasound.

Compound	cardiac function [1]	gene group associated with OK-1: genes associated with regulation of muscle without exercise [2]	upstream factors from upstream transcription factor analysis [2]	gene group associated with OK-1 by GSEA: involved in increase in muscle ([2]; GSEA, TRRUST ver2)	genes decreased (downregulated expression) significantly in muscle ([2]; OK-1 administration, p<0.05)	genes increased (upregulated expression) significantly in muscle ([2]; OK-1 administration, p<0.05)	muscle (from creatine, IL-6 and cholesterol concentrations) [3]	gene group associated with OK-1: genes with change in muscle control with/without exercise, disease-associated ([4]; top 100 genes)	osteoporosis (from NTX concentration) [5]	pancreatic function, liver function and salivary gland function [6]	phosphorylation of Tau, memory or brain atrophy [7]	bone density [8]	change in gene expression in muscles ([2]; C-82 administration, same method as Example 2)	kidney function and muscle (from creatine, IL-6, cholesterol, UN and UA concentrations) [3]	diseases associated with the top 100 differentially expressed genes ([4]; C-82 administration, mice with/without exercise)
C[C@H]1[C@H]2N(C(=O)CN(C)N2C(=O)NCc2ccccc2)[C@@H](Cc2ccc(OP(=O)(O)O)cc2)C(=O)N1Cc1cccc2cccnc12 [OK-1]	cardiac function is improved	Ppara, Pou2f2, Foxo1, Pparg, Pou2f1, Trp63, Sp1, Tcf3, Zeb1, Srebf1, Sp3, Ebf1, Mycn, and Pbx1	Hnf4a and Gata4, Nrf1, and Hnf1a	IRF1, NFE2L2, PPARG, FOXO1, CEBPB, PPARA, CEBPA, STAT1, STAT5A, MYOD1, REL, NFKB1, SPI1, IRF8, SP1, and FOXM1	445 genes and 595 genes	206 genes and 181 genes	muscle improves	Dsp, Krt17, Comp, Krt86, Krt81, Krt83, Krt14, Abca12, Tchh, Krt5, Dsg4, Lpl, Myh6, Tfap2a, Col1a1, Lepr, Fn1, Col1a2, Col6a1, Col3a1, Mmp2, Acta2, F13a1, Col6a2, and Cx3cr1	osteoporosis is improved	pancreatic function, liver function, and salivary gland function are improved	suppression in phosphorylation of Tau and improvement in memory or brain atrophy are observed	bone density is improved			
C[C@H]1[C@H]2N(C(=O)CN(C)N2C(=O)NCc2ccccc2)[C@@H](Cc2ccc(O)cc2)C(=O)N1Cc1cccc2cccnc12 [C-82, (6S,9S)—N-benzyl-6-(4-hydroxybenzyl)-2,9-dimethyl-4,7-dioxo-8-(quinolin-8-ylmethyl)hexahydro-2H-pyrazino[2,1-c][1,2,4]triazine-1(6H)-carboxamide]	cardiac function is improved								osteoporosis is improved	pancreatic function, liver function, and salivary gland function are improved	suppression in phosphorylation of Tau and improvement in memory or brain atrophy are observed	bone density is improved	achieves the same result as OK-1	kidney function and muscle improve	achieves the same result as OK-1
